This note sets out measurements from paper PMC8877008, “Synthesis and Structure–Activity Relationship Studies of Benzimidazole-4,7-dione-Based P2X3 Receptor Antagonists as Novel Anti-Nociceptive Agents” (Molecules, 2022).

One series deals with T1, hP2X2/3R (Homo sapiens, UniProt P56373+Q9UBL9).
T1 construct: expressed in transfected cells
T1 sequence (P56373 1-397): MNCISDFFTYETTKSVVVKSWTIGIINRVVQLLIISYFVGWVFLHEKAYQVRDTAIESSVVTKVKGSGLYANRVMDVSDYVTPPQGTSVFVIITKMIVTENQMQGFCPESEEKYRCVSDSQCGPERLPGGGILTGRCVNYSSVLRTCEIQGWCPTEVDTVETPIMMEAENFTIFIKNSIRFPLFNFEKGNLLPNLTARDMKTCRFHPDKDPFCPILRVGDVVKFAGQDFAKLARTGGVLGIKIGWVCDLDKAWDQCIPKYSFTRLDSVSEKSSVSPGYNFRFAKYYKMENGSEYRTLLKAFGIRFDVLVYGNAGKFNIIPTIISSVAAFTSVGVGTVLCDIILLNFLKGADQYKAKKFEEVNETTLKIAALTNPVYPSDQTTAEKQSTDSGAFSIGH
T1 sequence (Q9UBL9 1-471): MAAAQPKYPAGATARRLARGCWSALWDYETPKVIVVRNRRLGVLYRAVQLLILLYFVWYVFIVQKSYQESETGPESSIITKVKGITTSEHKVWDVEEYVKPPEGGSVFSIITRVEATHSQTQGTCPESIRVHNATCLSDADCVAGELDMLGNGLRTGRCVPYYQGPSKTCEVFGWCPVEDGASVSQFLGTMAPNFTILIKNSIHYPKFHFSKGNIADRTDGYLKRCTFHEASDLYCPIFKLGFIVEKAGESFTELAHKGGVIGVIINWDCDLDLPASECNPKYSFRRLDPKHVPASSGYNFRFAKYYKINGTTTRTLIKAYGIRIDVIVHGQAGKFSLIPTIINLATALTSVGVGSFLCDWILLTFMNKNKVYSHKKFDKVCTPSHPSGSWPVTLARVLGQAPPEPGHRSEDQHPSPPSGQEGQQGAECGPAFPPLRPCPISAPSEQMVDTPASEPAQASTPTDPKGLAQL
Nature of the series: Calcium influx (Fluo-4) evoked by α,β-meATP in HEK293 cells stably expressing hP2X2/3R. Type of series: cell-based. The following applies: antagonistic activity; HEK293 cells expressing hP2X2/3R; agonist at EC70. Here is the method: For the evaluation of P2XR activities, a cell-based assay system was employed to measure the level of fluorescence emission, based on Fluo-4 dye, during Ca^2+ influx evoked by αβmeATP in HEK293 cells stably expressing hP2X2/3R and hP2X3R. The library containing 8364 representative compounds for the screening of antagonistic activity was provided by the Korea Chemical Bank. The antagonistic activities were evaluated in the presence of P2X3R agonist of the concentration for EC70 value (200–250 nM for hP2X3R and 1–4 μM for hP2X2/3R highly expressed cell lines), and AF353 was used as the positive control antagonist for comparison. […]
3.4. Cell-Based Assay: Measurement of Calcium Influx by Fluorescence-Based Fluo-4 Dye Uptake in HEK293 Cells Expressing hP2X2/3 and hP2X3 Receptors
Human P2X3-expressing HEK293 cells were grown in DMEM supplemented with 10% fetal bovine serum and 1% antibiotic–antimycotic as a monolayer culture at 37 °C in a humidified atmosphere of 5% CO2. […] Flexstation 3 and its software provided by Molecular Devices was used for the measurement of fluorescence in real time of treatments using prepared α,β-meATP (M6517, Sigma Aldrich) solution to evoke calcium influx and increased cell membrane potential. […]

A short description of series [1]: In vivo pharmacokinetic study in rats. As to conditions: male, SD, plasma, 10 mg/kg; oral administration, 10 mpk, rat. Here is the method:
Experiments were used to determine any changes during in vivo pharmacokinetics, such as absorption, distribution, metabolism, and excretion of compounds, which are correlated with drug efficacy and toxicity. Pharmacokinetic experiments using rats were mainly conducted using 8-week-old SD male rats (Osan, Kyungki-Do, Korea). A tube was inserted into the femoral vein, the intravenous administration group was administered through the tube, and the oral administration group was administered the drug orally using oral gavage (1–2 mL/kg). Blood collection for the drug was performed at fixed times ([…], 0.25, 0.5, 1, 2, 4, 6, 8, and 24 h) from the time when the tube was inserted into the femoral vein. Blood was centrifuged to separate plasma, and plasma and urine samples were pretreated (minimum 0.5 ng/mL and maximum 8000 ng/mL) using an appropriate organic solvent. For sample preparation, the working solution of rat blank plasma was spiked, followed by preparation of plasma samples with solid phase extraction. Next, the concentration of 100 μL eluent was analyzed by LC–MS/MS (Mass spectrometry 4000 Qtrap with HPLC, Agilent 1200, Santa Clara, CA, USA). The noncompartmental pharmacokinetic parameters were calculated from the blood concentration–time data of the drug analyzed using the noncompartmental analysis model of WinNonlin (Pharsight ver 6.4, Princeton, NJ, USA).

Turning to `O=C1C(NC2CCN(C(=O)c3ccc(F)c(F)c3)CC2)=C(Cl)C(=O)c2[nH]c(C(F)(F)F)nc21` [14h, 6-Chloro-5-((1-(3,4-difluorobenzoyl)piperidin-4-yl)amino)-2-(trifluoromethyl)-1H-benzo[d]imidazole-4,7-dione], the IC50 (usually the concentration at which inhibition is half-maximal) at hP2X2/3R was found to be 9.1 µM. Further, in series [1], the AUC(0-inf) (usually total exposure, with the tail of the curve extrapolated) was determined as 250 ng·h/mL; the peak level (Cmax) was 40 ng/mL; the Tmax (commonly the time at which the peak concentration occurs) is 0.33 h; the half-life (as a rule, the time in which the quantity being followed falls by half) was 7.58 h.
